Data reported in patent publication US20030186980A1, “Anthelmintic agents for preventing parasitic infections in humans and animals III” (priority 2000, published 2003).

What was measured:
[1] = test system: Schistosoma mansoni cercariae; experiment: Activity against Schistosoma mansoni cercariae (survival/mobility observed with a stereomagnifier); set-up: key: no effect during the entire test period of 120 minutes; 1: weak effect (the cercariae have a strongly reduced mobility); 2: good effect (the cercariae are only slightly mobile and bent); 3: full effect (the cercariae are completely immobile); conditions: 500 μl/l final concentration of active compound; PEG300/aquarium water; test period of 120 minutes; about 100 to 150 cercariae per batch
Method: [500 μl/l final concentration of the active compounds] Snails (Biomphalaria glabrata) were infected by incubating each of them with 8 miracidia in 10 ml of water overnight. About 6 to 9 weeks after the infection, cercariae were obtained by irradiating the snails, which had been kept in darkness, with light, followed by collection of the swarming cercariae within 2 hours.
Such an amount of cercariae-containing water (1 or 2 ml, see below) was added to the test batches that each batch contained about 100 to 150 cercariae.
5 μl of active compound were mixed thoroughly with 25 μl of PEG300. 9 ml of aquarium water was then added, and the batch was shaken vigorously. After (delayed) addition of 1 ml of cercariae suspension, survival of the cercariae was in each case observed immediately using a stereomagnifier.

[2] = test system: cercariae of Schistosoma mansoni; conditions: topical; Salafsky et al. 1998; cited from earlier work
[3] = test system: cercariae of Schistosoma mansoni; conditions: topical, monkeys; Bruce et al. 1992; cited from earlier work
[4] = test system: cercariae of Schistosoma mansoni; conditions: Fripp and Armstrong 1973; cited from earlier work

## CCC(C)N(C)C(=O)N1CC(C)OC(C)C1 (stereo not shown)
[1]
  activity rating against Schistosoma mansoni cercariae: 1

## CCN(CC)C(=O)c1cccc(C)c1 [N,N-Diethyl-m-toluamide (DEET), N,N-Diethyl-m-toluamide]
[2]
  action against cercariae of Schistosoma mansoni: acts against cercariae

## O=C(Nc1ccc([N+](=O)[O-])cc1Cl)c1cc(Cl)ccc1O [Niclosamide]
[3]
  action against the penetration of cercariae: acts against the penetration of cercariae

## Oc1c(Cl)cc(Cl)c(Cl)c1Cc1c(O)c(Cl)cc(Cl)c1Cl [hexachlorophene]
[4]
  effect on cercariae of Schistosoma mansoni: lethal effect
